Values of other authors in patent publication US20260206743A1, “PROPINEB NANOSUSPENSION” (priority 2022, published 2026).
Where two headings read alike, the source gives them in different places.

poly [1,2-propylene bis(dithiocarbamate)] zinc [Propineb]
Solubility in water (20° C.): < 0.01 mg/mL
Solubility in organic solvent (DMF+DMSO mixture): exceed 200 g/L
Solubility in organic solvent (dichloromethane): < 0.1 mg/mL
Solubility in organic solvent (hexane): < 0.1 mg/mL
Solubility in organic solvent (toluene): < 0.1 mg/mL
